Holding throughout (type): in vivo
For series [1], the system named is Yellow Fever Mosquito (Aedes aegypti, "YFM"). The series can be described thus: Bioassay on yellow fever mosquito larvae, 96-well plate assay. To be noted: 4000 ppm DMSO master solution diluted with 90:10 water:acetone; about 1 day-old larvae; room temperature; scored after 3 days. Here is the method:
Bioassays On Yellow Fever Mosquito (Aedes aegypti, “YFM”)
Certain molecules disclosed in this document were tested against YFM using procedures described in the following paragraph. In the reporting of the results, the “YFM Rating Table” was used (See Table Section).
Master plates containing 400 μg of a molecule dissolved in 100 μL of dimethyl sulfoxide (DMSO) (equivalent to a 4000 ppm solution) are used. A master plate of assembled molecules contains 15 μL per well. To this plate, 135 μL of a 90:10 water:acetone mixture is added to each well. A robot (Biomek® NXP Laboratory Automation Workstation) is programmed to dispense 15 μL aspirations from the master plate into an empty 96-well shallow plate (“daughter” plate). There are 6 reps (“daughter” plates) created per master. The created daughter plates are then immediately infested with YFM larvae.
The day before plates are to be treated, mosquito eggs are placed in Millipore water containing liver powder to begin hatching (4 g. into 400 mL). After the daughter plates are created using the robot, they are infested with 220 μL of the liver powder/larval mosquito mixture (about 1 day-old larvae). After plates are infested with mosquito larvae, a non-evaporative lid is used to cover the plate to reduce drying. Plates are held at room temperature for 3 days prior to grading. After 3 days, each well is observed and scored based on mortality.

For series [2], the system named is Beet Armyworm (Spodoptera exigua, "BAW"). Description: Bioassay on beet armyworm, 128-well diet tray assay. Conditions: 168 h, 50 μg/cm^2 of test compound on artificial diet, second instar larvae, 25° C., five to seven days, average of eight wells, read-out: BAW % Control (or Mortality) rating. Here is the method:
(§1) Bioassays on Beet Armyworm (Spodoptera exigua, “BAW”) and Cabbage Looper (Trichoplusia ni, “CL”)
(§2) Certain molecules disclosed in this document were tested against BAW and CL using procedures described in the following examples. In the reporting of the results, the “BAW & CL Rating Table” was used (See Table Section).
Bioassays on BAW were conducted using a 128-well diet tray assay. one to five second instar BAW larvae were placed in each well (3 mL) of the diet tray that had been previously filled with 1 mL of artificial diet to which 50 μg/cm^2 of the test compound (dissolved in 50 μL of 90:10 acetone-water mixture) had been applied (to each of eight wells) and then allowed to dry. Trays were covered with a clear self-adhesive cover and held at 25° C., 14:10 light-dark cycle for five to seven days. Percent mortality was recorded for the larvae in each well; activity in the eight wells was then averaged. The results are indicated in the table entitled “Table ABC: Biological Results” (See Table Section).

The subject of series [3] is Cabbage Looper (Trichoplusia ni, "CL"). Description: Bioassay on cabbage looper, 128-well diet tray assay. To be noted: 168 h, 50 μg/cm^2 of test compound on artificial diet, second instar larvae, 25° C., five to seven days, average of eight wells, read-out: CL % Control (or Mortality) rating. Here is the method: as §1, §2
Bioassays on CL were conducted using a 128-well diet tray assay. one to five second instar CL larvae were placed in each well (3 mL) of the diet tray that had been previously filled with 1 mL of artificial diet to which 50 μg/cm^2 of the test compound (dissolved in 50 μL of 90:10 acetone-water mixture) had been applied (to each of eight wells) and then allowed to dry. Trays were covered with a clear self-adhesive cover and held at 25° C., 14:10 light-dark cycle for five to seven days. Percent mortality was recorded for the larvae in each well; activity in the eight wells was then averaged. The results are indicated in the table entitled “Table ABC: Biological Results” (See Table Section).

Molecules are shown by their SMILES.

Broadly, the mortality is the share of the test organisms that died.

In the case of `Cc1cc(-c2ncn(-c3ccc(OC(F)(F)C(F)(F)F)cc3)n2)ccc1NC(=O)/N=C1\SCC(=O)N1c1ccc2c(ccn2C)c1` [F31, (Z)-1-(3-(1-Methyl-1H-indol-5-yl)-4-oxothiazolidin-2-ylidene)-3-(2-methyl-4-(1-(4-(perfluoroethoxy)phenyl)-1H-1,2,4-triazol-3-yl)phenyl)urea], the “YFM % Control (or Mortality) rating” value in series [1] is listed as “A (80-100)”.

Turning to `O=C(/N=C1\SCC(=O)N1c1cccc2c1COC2)Nc1ccc(-c2ncn(-c3ccc(OC(F)(F)F)cc3)n2)cc1F` [F8, (Z)-1-(3-(1,3-Dihydroisobenzofuran-4-yl)-4-oxothiazolidin-2-ylidene)-3-(2-fluoro-4-(1-(4-(trifluoromethoxy)phenyl)-1H-1,2,4-triazol-3-yl)phenyl)urea], the mortality at 50 µg/cm2 in series [2] and in series [3] was 50 to 100% in each case.

Consider `O=C(/N=C1\SCC(=O)N1c1ccc2c(c1)C(=O)OC2=O)Nc1ccc(-c2ncn(-c3ccc(OC(F)(F)F)cc3)n2)cc1F` [F11, (Z)-1-(3-(1,3-Dioxo-1,3-dihydroisobenzofuran-5-yl)-4-oxothiazolidin-2-ylidene)-3-(2-fluoro-4-(1-(4-(trifluoromethoxy)phenyl)-1H-1,2,4-triazol-3-yl)phenyl)urea], for which the mortality at 50 µg/cm2 was 0% in series [2] and 50 to 100% in series [3].

On to `O=C(/N=C1\SCC(=O)N1c1cc2c(cc1COCC(F)(F)F)OCO2)Nc1ccc(-c2ncn(-c3ccc(OC(F)(F)F)cc3)n2)cc1F` [F2, (Z)-1-(2-Fluoro-4-(1-(4-(trifluoromethoxy)phenyl)-1H-1,2,4-triazol-3-yl)phenyl)-3-(4-oxo-3-(6-((2,2,2-trifluoroethoxy)methyl)benzo[d][1,3]dioxol-5-yl)thiazolidin-2-ylidene)urea], for which the mortality at 50 µg/cm2 in series [2] and in series [3] was 50 to 100% each time.

Take `O=C(/N=C1\SCC(=O)N1c1cccc2c1OCC2)Nc1ccc(-c2ncn(-c3ccc(OC(F)(F)F)cc3)n2)cc1F` [F9, (Z)-1-(3-(2,3-Dihydrobenzofuran-7-yl)-4-oxothiazolidin-2-ylidene)-3-(2-fluoro-4-(1-(4-(trifluoromethoxy)phenyl)-1H-1,2,4-triazol-3-yl)phenyl)urea]: the mortality at 50 µg/cm2 in series [2] and in series [3] was 50 to 100% each time.

Consider `O=C(/N=C1\SCC(=O)N1c1cc2c(cc1COCC(F)(F)F)OCO2)Nc1ccc(-c2ncn(-c3ccc(S(F)(F)(F)(F)F)cc3)n2)cc1F` [F3, (Z)-1-(2-Fluoro-4-(1-(4-(pentafluoro-λ^6-sulfaneyl)phenyl)-1H-1,2,4-triazol-3-yl)phenyl)-3-(4-oxo-3-(6-((2,2,2-trifluoroethoxy)methyl)benzo[d][1,3]dioxol-5-yl)thiazolidin-2-ylidene)urea], for which the mortality at 50 µg/cm2 in series [2] and in series [3] was 50 to 100% each time.

Consider `Cn1ccc2cc(N3C(=O)CS/C3=N\C(=O)Nc3ccc(-c4ncn(-c5ccc(C(F)(F)C(F)(F)F)cc5)n4)cc3F)ccc21` [F24, (Z)-1-(2-Fluoro-4-(1-(4-(perfluoroethyl)phenyl)-1H-1,2,4-triazol-3-yl)phenyl)-3-(3-(1-methyl-1H-indol-5-yl)-4-oxothiazolidin-2-ylidene)urea], for which the “YFM % Control (or Mortality) rating” value in series [1] is on record as “D (No activity noticed in this bioassay)”.

On to `O=C(/N=C1\SCC(=O)N1c1cccc2occc12)Nc1ccc(-c2ncn(-c3ccc(OC(F)(F)F)cc3)n2)cc1F` [F4, (Z)-1-(3-(Benzofuran-4-yl)-4-oxothiazolidin-2-ylidene)-3-(2-fluoro-4-(1-(4-(trifluoromethoxy)phenyl)-1H-1,2,4-triazol-3-yl)phenyl)urea], for which the mortality at 50 µg/cm2 in series [2] and in series [3] was 50 to 100% throughout.

Take `Cc1cc(-c2ncn(-c3ccc(OC(F)(F)C(F)(F)F)cc3)n2)ccc1NC(=O)/N=C1\SCC(=O)N1c1cccc2c1OCC2` [F28, (Z)-1-(3-(2,3-Dihydrobenzofuran-7-yl)-4-oxothiazolidin-2-ylidene)-3-(2-methyl-4-(1-(4-(perfluoroethoxy)phenyl)-1H-1,2,4-triazol-3-yl)phenyl)urea]: the “YFM % Control (or Mortality) rating” value in series [1] is listed as “A (80-100)”.

`Cc1cc(-c2ncn(-c3ccc(OC(F)(F)F)cc3)n2)ccc1NC(=O)/N=C1\SCC(=O)N1c1cc2c(cc1COCC(F)(F)F)OCO2` [F1]: the mortality at 50 µg/cm2 in series [2] and in series [3] was 50 to 100% throughout.

With `O=C(/N=C1\SCC(=O)N1c1cccc2ccoc12)Nc1ccc(-c2ncn(-c3ccc(OC(F)(F)F)cc3)n2)cc1F` [F5, (Z)-1-(3-(Benzofuran-7-yl)-4-oxothiazolidin-2-ylidene)-3-(2-fluoro-4-(1-(4-(trifluoromethoxy)phenyl)-1H-1,2,4-triazol-3-yl)phenyl)urea], the mortality at 50 µg/cm2 in series [2] and in series [3] was 50 to 100% throughout.

`O=C(/N=C1\SCC(=O)N1c1cccc2ncccc12)Nc1ccc(-c2ncn(-c3ccc(C(F)(F)C(F)(F)F)cc3)n2)cc1F` [F34, (Z)-1-(2-Fluoro-4-(1-(4-(perfluoroethyl)phenyl)-1H-1,2,4-triazol-3-yl)phenyl)-3-(4-oxo-3-(quinolin-5-yl)thiazolidin-2-ylidene)urea]: the “YFM % Control (or Mortality) rating” value in series [1] is given as “A (80-100)”.

Consider `Cc1cc(-c2ncn(-c3ccc(OC(F)(F)C(F)(F)F)cc3)n2)ccc1NC(=O)/N=C1\SCC(=O)N1c1cccc2c1CCO2` [F25, (Z)-1-(3-(2,3-Dihydrobenzofuran-4-yl)-4-oxothiazolidin-2-ylidene)-3-(2-methyl-4-(1-(4-(perfluoroethoxy)phenyl)-1H-1,2,4-triazol-3-yl)phenyl)urea], for which the mortality at 50 µg/cm2 in series [2] and in series [3] was 50 to 100% throughout.

As to `O=C(/N=C1\SCC(=O)N1c1cccc2c1CCC2)Nc1ccc(-c2ncn(-c3ccc(OC(F)(F)F)cc3)n2)cc1F` [F10, (Z)-1-(3-(2,3-Dihydro-1H-inden-4-yl)-4-oxothiazolidin-2-ylidene)-3-(2-fluoro-4-(1-(4-(trifluoromethoxy)phenyl)-1H-1,2,4-triazol-3-yl)phenyl)urea], the mortality at 50 µg/cm2 in series [2] and in series [3] was 50 to 100% in each case.

Take `Cc1cc(-c2ncn(-c3ccc(OC(F)(F)C(F)(F)F)cc3)n2)ccc1NC(=O)/N=C1\SCC(=O)N1c1cccc2ccccc12` [F26, (Z)-1-(2-Methyl-4-(1-(4-(perfluoroethoxy)phenyl)-1H-1,2,4-triazol-3-yl)phenyl)-3-(3-(naphthalen-1-yl)-4-oxothiazolidin-2-ylidene)urea]: the mortality at 50 µg/cm2 in series [2] and in series [3] was 50 to 100% throughout.

As to `Cn1ccc2c(N3C(=O)CS/C3=N\C(=O)Nc3ccc(-c4ncn(-c5ccc(C(F)(F)C(F)(F)F)cc5)n4)cc3F)cccc21` [F30, (Z)-1-(2-Fluoro-4-(1-(4-(perfluoroethyl)phenyl)-1H-1,2,4-triazol-3-yl)phenyl)-3-(3-(1-methyl-1H-indol-4-yl)-4-oxothiazolidin-2-ylidene)urea], in series [1], the “YFM % Control (or Mortality) rating” value is recorded as “A (80-100)”.

Turning to `O=C(/N=C1\SCC(=O)N1c1cccc2ocnc12)Nc1ccc(-c2ncn(-c3ccc(OC(F)(F)F)cc3)n2)cc1F` [F7, (Z)-1-(3-(Benzo[d]oxazol-4-yl)-4-oxothiazolidin-2-ylidene)-3-(2-fluoro-4-(1-(4-(trifluoromethoxy)phenyl)-1H-1,2,4-triazol-3-yl)phenyl)urea], the mortality at 50 µg/cm2 in series [2] and in series [3] was 50 to 100% in each case.

Source of the values: patent publication US20240057606A1, “MOLECULES HAVING CERTAIN PESTICIDAL UTILITIES, AND INTERMEDIATES, COMPOSITIONS, AND PROCESSES RELATED THERETO” (priority 2020, published 2024).
